Test results reported in patent US20240417408A1, “SMALL MOLECULE INHIBITORS OF KRAS G12C MUTANT” (MERCK SHARP & DOHME CORP., priority 2021, published 2024).

Columns and labels:
[1] = target: T1, biotinylated KRAS protein containing G12C/C51S/C80L/C118S mutations (SEQ ID NO: 3) (Homo sapiens, UniProt P01116, C118S/C51S/C80L/G12C); assay: Test Example 4: SOS-catalyzed nucleotide exchange assay (TR-FRET); assay type: biochemical; conditions: 60-minute incubation with compound, then SOS and GTP, read-out: GNE IC50
T1 construct: biotin acceptor peptide (Avi-type, […]
Description: Test Example 4: Procedure for SOS-Catalyzed Nucleotide Exchange Assay
The SOS-catalyzed nucleotide exchange assay utilizes a preformed complex of recombinant biotinylated KRAS protein containing G12C/C51S/C80L/C118S mutations (SEQ ID NO: 3) (referred to as Biotinylated KRAS G12C protein hereafter), Bodipy-GDP, and Terbium-streptavidin. Compounds are added to this complex and then after a 60-minute incubation time the mixture is treated with SOS and unlabeled GTP. Small molecule inhibitors stabilize the Bodipy-GDP complex whereas the untreated protein rapidly exchanges Bodipy-GDP for unlabeled GTP resulting in reduced TR-FRET signal.
Biotinylated KRAS G12C protein is diluted to 2 μM in an EDTA buffer (20 mM HEPES, 50 mM sodium chloride, 10 mM EDTA, and 0.01% Tween) and incubated at room temperature for one hour. This mixture is then further diluted to 90 nM in an assay buffer (20 mM HEPES, 150 mM sodium chloride, 10 mM magnesium chloride, and 0.005% Tween) containing 15 nM of Terbium-Streptavidin (Invitrogen, catalog #PV3577) and 900 nM of Bodipy-GDP (Invitrogen, G22360) and incubated at room temperature for six hours. This solution is referred to as Biotinylated KRAS G12C stock solution and is then diluted to 9 nM in assay buffer to give the KRAS G12C assay solution.
Each test compound (10 mM stock in DMSO) is diluted in DMSO to make a 10-point, 3-fold dilution series in a 384-well low dead volume microplate (Labcyte, catalog #LP-0200). Once titrations are made, 10 nL of the diluted compounds is acoustically dispensed into a 384-well plate (Corning, catalog #3820) using an Echo 550 (Labcyte).
Each well receives 6 μL of Biotinylated KRAS G12C assay solution using a BioRAPTR (Beckman Coulter) and is incubated at room temperature for 60 minutes in a humidified chamber. Each well then receives 3 μL of 120 nM recombinant human SOS protein and 9 mM GTP (Sigma, G8877) in assay buffer and is incubated at room temperature for 60 minutes in a humidified chamber.
The time-resolved fluorescence resonance energy transfer signal of both plates is measured on an Envision (PerkinElmer) plate reader: Excitation filter=340 nm; emission 1=495 nm; emission 2=520 nm; dichroic mirror=D400/D505; delay time=100 μs. The signal of each well is determined as the ratio of the emission at 520 nm to that at 495 nm. Percent effect of each well is determined after normalization to control wells containing DMSO (no effect) or a saturating concentration of inhibitor (max effect). The apparent effect as a function of compound concentration is fit to a four-parameter logistic equation.

MIA PaCa-2 cells = assay: Test Example 3: growth inhibition activity on KRAS-G12C mutant cell line (MIA PaCa-2); assay type: cell-based; conditions: Homo sapiens, 72 h, MIA PaCa-2, 3-day culture, CellTiter-Glo 3D, read-out: CTX MiaPaCa IC50
Description: Test Example 3: Assay of Growth Inhibition Activity on KRAS-G12C Mutant Cell Line (MIA PaCa-2) (In Vitro)
MIA PaCa-2 cells (provided by Sumitomo Dainippon Pharma Co., Ltd.), which are a KRAS-G12C mutant human pancreas cancer cell line, were suspended in a 10% fetal bovine serum-containing RPMI1640 medium (manufactured by Fujifilm Wako Pure Chemical Corporation.). The cell suspension was seeded into each well of a 384-well U bottom microplate and cultured in an incubator containing 5% CO2 gas at 37° C. for 1 day. The compounds obtained in the Examples section were used as test compounds and were dissolved in DMSO, respectively, and each test compound was diluted with DMSO to give a concentration 500 times the final concentration. The resultant solution of the test compound in DMSO was diluted with the medium used for suspending cells and added to each well of the cell-culture plate to give a DMSO final concentration of 0.2%, followed by culture in an incubator containing 5% CO2 gas at 37° C. for another 3 days. The cell count after 3-day culture in the presence of the test compound was measured using CellTiter-Glo 3D Reagent (manufactured by Promega Corporation). To all cells were added with CellTiter-Glo 3D Reagent and mixed for 10 minutes. 30 minutes after mixing, luminescence was measured by a plate reader. The growth inhibition rate was calculated from the following equation, and the concentration of the test compound at which 50% inhibition was achieved (IC50 (nM)) was determined.
[formula] • T: the emission intensity in a well into which a test compound was added. • C: the emission intensity in a well into which a test compound was not added.

[2] = target: T2, Recombinant KRAS G12C mutant protein (amino acids 1-169, SEQ ID NO: 1) (Homo sapiens, UniProt P01116, G12C); assay: Test Example 1: inhibitory activity on KRAS G12C nucleotide (GDP-GTP) exchange reaction in vitro; assay type: biochemical; conditions: BODIPY FL GDP-bound KRAS G12C incubated with compound at 25° C. for 1 hour, then SOS1 and GMPPNP, read-out: GNE IC50
T2 construct: His6 (N); TEV protease site (ENLYFQG; named from own knowledge) (N); made in house; host or cells: E. coli
Description: Test Example 1: Evaluation of inhibitory activity of compounds on KRAS G12C nucleotide (GDP-GTP) exchange reaction in vitro
Recombinant KRAS G12C mutant protein (amino acids 1-169, SEQ ID NO: 1) and cleaved recombinant SOS1 (amino acids 564-1049, SEQ ID NO:2) proteins were expressed in E. coli and purified by affinity chromatography.
To prepare BODIPY FL GDP-bound KRAS G12C protein, 50 μM KRAS G12C protein was incubated with 0.5 mM BODIPY FL GDP in a loading buffer (20 mM Tris-HCl (pH 7.5), 50 mM NaCl, 1 mM DTT and 2.5 mM EDTA) for 1 hour on ice. After the incubation, MgCl2 was added to a final concentration of 10 mM, followed by incubation at room temperature for 30 minutes. The mixture was allowed to pass through a NAP-5 column to remove free nucleotides and purified BODIPY FL GDP-bound KRAS G12C protein was used for compound evaluation.
For the measurement of the inhibitory activity of compounds on GDP-GTP exchange rate of recombinant KRAS G12C, BODIPY FL GDP-bound KRAS G12C protein was incubated with various concentrations of compound in a reaction buffer (20 mM Tris-HCl (pH 7.5), 100 mM NaCl, 1 mM MgCl2, 2 mM DTT, 0.1% Tween 20) at 25° C. for 1 hour. After the incubation, recombinant SOS1 and Guanosine-5′-[(β,γ)-imido]triphosphate, Tetralithium salt (GMPPNP) (Jena Bioscience GmbH) were added and incubated at room temperature for 30 minutes to proceed SOS1-dependent GDP-GTP exchange reaction on KRAS G12C. Replacement of BODIPY FL GDP by GMPPNP was measured by calculating the ratio of fluorescence intensities of BODIPY FL before and after the exchange reaction. Inhibition % was calculated by setting the fluorescence ratio from the reaction without test compound (DMSO control) and the fluorescence ratio from the reaction without SOS1 and GMPPNP as 0% and 100% inhibition, respectively. IC50 values were calculated from dose titration curve using curve fitting by XLfit software (IDBS).

[3] = target: T3, interaction between KRAS G12C and cRAF-RBD (Homo sapiens, UniProt P01116, G12C); assay: Test Example 2: inhibitory activity on interaction between KRAS G12C and cRAF (Alpha technology); assay type: binding; conditions: GMPPNP-bound KRAS G12C incubated with compound at 25° C. for 1 hour, then cRAF-RBD
T3 construct: TEV protease site (ENLYFQG); made in house; host or cells: E. coli
Description: Test Example 2: Evaluation of Inhibitory Activity of Compounds on Interaction Between KRAS G12C and cRAF (In Vitro)
Interaction between recombinant KRAS G12C mutant protein (SEQ ID NO: 1) and cRAF RAS-binding domain (cRAF-RBD, amino acids 50-132, Jena Biosciences GmbH) was measured using Alpha technology (PerkinElmer Inc.).
Recombinant KRAS G12C protein with an N-terminal His-tag was expressed in E. coli and purified by affinity chromatography. To prepare GTP-bound form and GDP-bound form of KRAS G12C protein, 50 μM KRAS G12C protein was incubated with 1 mM GMPPNP (Jena Bioscience GmbH) and 1 mM GDP, respectively, in a loading buffer (20 mM Tris-HCl (pH 7.5), 50 mM NaCl, 1 mM DTT and 2.5 mM EDTA) for 1 hour on ice. After the incubation, MgCl2 was added to a final concentration of 10 mM, followed by incubation at room temperature for 30 minutes. The mixture was allowed to pass through a NAP-5 column to remove free nucleotides and purified, and the resultant nucleotide-bound KRAS G12C protein was used for compound evaluation.
For the measurement of the inhibitory activity of compounds on interaction between KRAS G12C and cRAF-RBD, GMPPNP-bound KRAS G12C protein was incubated with various concentrations of compound in a reaction buffer (20 mM Tris-HCl (pH 7.5), 100 mM NaCl, 1 mM MgCl2, 1 mM TCEP, 0.1% Tween 20) at 25° C. for 1 hour. After the incubation, recombinant cRAF-RBD and Alpha detection reagents were added and incubated at room temperature for 1.5 hours for binding. Interaction of KRAS G12C and cRAF-RBD was monitored by measuring Alpha signal. Inhibition % was calculated using the signal from the reaction without test compound (DMSO control) as 0% inhibition and the signal from the reaction using GDP-bound KRAS G12C in place of GMPPNP-bound KRAS G12C as 100% inhibition. IC50 values were calculated from dose titration curve using curve fitting by XLfit software (IDBS).

T3 sequence (P01116 with tags, fused parts or gaps isoform P01116-2 G12C): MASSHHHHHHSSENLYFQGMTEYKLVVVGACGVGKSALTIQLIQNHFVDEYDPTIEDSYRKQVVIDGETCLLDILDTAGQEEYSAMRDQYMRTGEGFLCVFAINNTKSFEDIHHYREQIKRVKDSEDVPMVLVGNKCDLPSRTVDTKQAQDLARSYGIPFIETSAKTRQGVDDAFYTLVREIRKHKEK
T2 sequence (P01116 with tags, fused parts or gaps isoform P01116-2 G12C): as above
T1 sequence (P01116 with tags, fused parts or gaps isoform P01116-2 G12C/C51S/C80L/C118S): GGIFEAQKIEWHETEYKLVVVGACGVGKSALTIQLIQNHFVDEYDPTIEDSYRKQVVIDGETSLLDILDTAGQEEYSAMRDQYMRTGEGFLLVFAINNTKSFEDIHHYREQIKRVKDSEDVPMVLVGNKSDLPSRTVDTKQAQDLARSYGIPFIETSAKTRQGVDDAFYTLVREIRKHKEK

Row | IC50 [1] | IC50 (MIA PaCa-2 cells) | IC50 [2] | IC50 [3] | SMILES
1 |  | 8250 nM | 46.7 nM | 3550 nM | C#Cc1cccc2cc(O)cc(C3Cc4nc(OC[C@@H]5CCCN5C)nc(N5CCN(C(=O)/C=C/CN6CCC(OC)CC6)[C@@H](CO)C5)c4CO3)c12 (stereo partly drawn) [Example 19, (E)-1-((2R)-4-(7-(8-ethynyl-3-hydroxynaphthalen-1-yl)-2-(((S)-1-methylpyrrolidin-2-yl)methoxy)-7,8-dihydro-5H-pyrano[4,3-d]pyrimidin-4-yl)-2-(hydroxymethyl)-piperazin-1-yl)-4-(4-meth-oxypiperidin-1-yl)but-2-en-1-one]
2 |  | > 10000 nM | 338 nM | > 6670 nM | C#Cc1cccc2cc(O)cc(C3Cc4nc(OC5CN(S(C)(=O)=O)C5)nc(N5CCN(C(=O)/C=C/CN6CCC(OC)CC6)[C@@H](CC#N)C5)c4CO3)c12 (stereo partly drawn) [Example 16, 2-((2S)-4-(7-(8-ethynyl-3-hydroxynaphthalen-1-yl)-2-((1-(methylsulfonyl)azeti-din-3-yl)oxy)-7,8-dihydro-5H-pyrano[4,3-d]pyrimidin-4-yl)-1-((E)-4-(4-methoxy-piperidin-1-yl)but-2-enoyl)-piperazin-2-yl)acetonitrile]
3 |  | 4.36 nM | 0.88 nM | 50.6 nM | C#Cc1cccc2cc(O)cc([C@@H]3Cc4nc(OC[C@@H]5CCCN5C)nc(N5CCN(C(=O)/C=C/CN6CCC(OC)CC6)[C@@H](CC#N)C5)c4CO3)c12 [Example 7, 2-((S)-4-((S)-7-(8-ethynyl-3-hydroxynaphthalen-1-yl)-2-(((S)-1-methylpyrrolidin-2-yl)methoxy)-7,8-dihydro-5H-pyrano[4,3-d]pyrimidin-4-yl)-1-((E)-4-(4-methoxy-piperidin-1-yl)but-2-enoyl)-piperazin-2-yl)acetonitrile]

More lines, now with the values behind:

Row | SMILES | IC50 [1] | IC50 (MIA PaCa-2 cells) | IC50 [2] | IC50 [3]
4 | C#Cc1cccc2cccc(C3Cc4nc(OCC56CCCN5CC(F)C6)nc(N5CCN(C(=O)C=CCN6CCC(OC)CC6)C(CC#N)C5)c4CO3)c12 (single isomer, unassigned) [Example 25a] | 142 nM |  |  | 
5 | CO[C@H]1CC[C@H](NC/C=C/C(=O)N2CCN(c3nc(OC[C@@H]4CCCN4C)nc4c3COC(c3cccc5ccccc35)C4)C[C@@H]2CC#N)CC1 (stereo partly drawn) [Example 2, 2-((2S)-1-((E)-4-(((1r,4S)-4-methoxycyclohexyl)amino)-but-2-enoyl)-4-(2-(((S)-1-methylpyrrolidin-2-yl)meth-oxy)-7-(naphthalen-1-yl)-7,8-dihydro-5H-pyrano[4,3-d]pyrimidin-4-yl)piperazin-2-yl)acetonitrile] |  | 111 nM | 3.53 nM | 43700 nM
